Measured values: US20210179636A1, “ANTIBACTERIAL COMPOUNDS” (priority 2016, published 2021)
≈ marks a conversion by molar mass, not a printed value. Read-outs that look alike come from different tables or passages of the source.

Columns and labels:
[1] = test system: Acinetobacter baumannii NCTC 13420; assay: MIC, broth microdilution (CLSI); format: cell-based; settings: A. baumannii NCTC 13420, 16-20 h, mode of three experiments
[2] = test system: Escherichia coli ATCC 25922; assay: MIC, broth microdilution (CLSI); format: cell-based; settings: E. coli ATCC 25922, 16-20 h, mode of three experiments
[3] = test system: Enterobacter cloacae NCTC 13406; assay: MIC, broth microdilution (CLSI); format: cell-based; settings: E. cloacae NCTC 13406, 16-20 h, mode of three experiments
[4] = test system: Staphylococcus aureus ATCC 29213; assay: MIC, broth microdilution (CLSI); format: cell-based; settings: S. aureus ATCC 29213, 16-20 h, mode of three experiments
[5] = test system: Haemophilus influenzae ATCC 49247; assay: MIC, broth microdilution (CLSI); format: cell-based; settings: H. influenzae ATCC 49247, 16-20 h, mode of three experiments
[6] = test system: Streptococcus pneumoniae ATCC 49619; assay: MIC, broth microdilution (CLSI); format: cell-based; settings: S. pneumoniae ATCC 49619, 16-20 h, mode of three experiments
[7] = test system: Pseudomonas aeruginosa ATCC 27853; assay: MIC, broth microdilution (CLSI); format: cell-based; settings: P. aeruginosa ATCC 27853, 16-20 h, mode of three experiments
[8] = test system: Klebsiella pneumoniae ATCC 700603; assay: MIC, broth microdilution (CLSI); format: cell-based; settings: K. pneumoniae ATCC 700603, 16-20 h, mode of three experiments
[9] = test system: Mycobacterium smegmatis ATCC 19420; assay: MIC, broth microdilution (CLSI); format: cell-based; settings: M. smegmatis ATCC 19420, 16-20 h, mode of three experiments
HepG2 ATCC HB-8065 = assay: Human cell viability assay (CellTiter-Glo); format: cell-based; settings: for IC50: Homo sapiens; for IC50 / IC50 HepG2: HepG2 cell viability, 24 h with compound, range 1-128 μg/mL
Procedure: Compounds are assessed for potential non-specific cytotoxic effects against a human hepatic cell line (HepG2 ATCC HB-8065). HepG2 cells are seeded at 20,000 cells/well in 96-well microtitre plates in minimal essential medium (MEM) supplemented with a final concentration of 10% FBS and 1 mM sodium pyruvate. After 24 h compound dilutions are prepared in Dulbecco's minimum essential media (DMEM) supplemented with final concentrations of 0.001% FBS, 0.3% bovine albumin and 0.02% HEPES and added to cells. Compounds are tested in two-fold serial dilutions over a final concentration range of 1-128 μg/mL in a final DMSO concentration of 1% vol/vol. Chlorpromazine is used as a positive control. Cells are incubated with compound at 37° C. and 5% CO2 for a further 24 h, after which time the CellTiter-Glo reagent (Promega) is added. Luminescence is measured on a BMG Omega plate reader. Data are analysed using GraphPad Prism software to determine the concentration of compound that inhibits cell viability by fifty percent (IC50).

[10] = test system: Klebsiella pneumoniae NCTC 13443; assay: MIC, broth microdilution (CLSI); format: cell-based; settings: NCTC13443, K. pneumoniae NCTC 13443, 16-20 h, mode of three experiments
[11] = test system: Acinetobacter baumannii ATCC 19606; assay: MIC, broth microdilution (CLSI); format: cell-based; settings: A. baumannii ATCC 19606, 16-20 h, mode of three experiments
E. coli MG1655 D87G = format: cell-based, Escherichia coli; settings: compared to the isogenic parent strain E. coli MG1655; D87G mutation on DNA gyrase subunit GyrA
E. coli MG1655 WT = assay: MIC, broth microdilution (CLSI); format: cell-based, Escherichia coli; settings: Escherichia coli, MG1655
E. coli MG1655 S83L = format: cell-based, Escherichia coli; settings: compared to the isogenic parent strain E. coli MG1655; S83L mutation on DNA gyrase subunit GyrA
E. coli NCTC 13476 = assay: MIC, broth microdilution (CLSI); format: cell-based, Escherichia coli; settings: Escherichia coli, NCTC13476, 16-20 h, mode of three experiments, read-out: MIC
E. coli ATCC BAA-2452 = assay: MIC, broth microdilution (CLSI); format: cell-based, Escherichia coli; settings: Escherichia coli, 16-20 h, mode of three experiments, read-out: MIC
[12] = Acinetobacter baumannii, NCTC13420, read-out: MIC
[13] = Escherichia coli, ATCC25922, read-out: MIC
[14] = Enterobacter cloacae, NCTC13406, read-out: MIC
[15] = Staphylococcus aureus, ATCC29213, read-out: MIC
[16] = Haemophilus influenzae, ATCC49247, read-out: MIC
[17] = Streptococcus pneumoniae, ATCC49619, read-out: MIC
[18] = Pseudomonas aeruginosa, ATCC27853, read-out: MIC
[19] = Klebsiella pneumoniae, ATCC700603, read-out: MIC
[20] = Acinetobacter baumannii, ATCC19606, read-out: MIC

Compound	MIC [1, 12]	MIC [2, 13]	MIC [3, 14]	MIC [4, 15]	MIC [5, 16]	MIC [6, 17]	MIC [7, 18]	MIC [8, 19]	IC50 (HepG2 ATCC HB-8065)	MIC [1]	MIC [2]	MIC [3]	MIC [4]	MIC [5]	MIC [6]	MIC [7]	MIC [8]	MIC [9]	IC50 HepG2 (HepG2 ATCC HB-8065)	Fold increase in MIC against E. coli MG1655 D87G (E. coli MG1655 D87G)	other results
COc1ccc2ccc(=O)n(CCN3C[C@@H]4CN(c5ccc6c(n5)NC(=O)CO6)C(=O)O[C@H]4C3)c2n1 (relative stereo) [Compound 1]	< 1 µg/mL	< 1 µg/mL	1 to 10 µg/mL (≈ 2.03 to 20.3 µM)	< 1 µg/mL	< 1 µg/mL	< 1 µg/mL	1 to 10 µg/mL (≈ 2.03 to 20.3 µM)	10 to 100 µg/mL (≈ 20.3 to 203 µM)	> 100 µg/mL	–	–	–	–	–	–	–	–	–	–	–	MIC ([9]; Mycolicibacterium smegmatis, ATCC19420, read-out: MIC): < 1 µg/mL
N#Cc1cccc(-c2cccc(CN3C[C@@H]4CN(c5ccc6c(n5)NC(=O)CO6)C(=O)O[C@H]4C3)c2O)n1 (relative stereo) [Compound 3]	1 to 10 µg/mL (≈ 2.01 to 20.1 µM)	1 to 10 µg/mL (≈ 2.01 to 20.1 µM)	> 100 µg/mL	< 1 µg/mL	1 to 10 µg/mL (≈ 2.01 to 20.1 µM)	1 to 10 µg/mL (≈ 2.01 to 20.1 µM)	> 100 µg/mL	> 100 µg/mL	10 to 100 µg/mL (≈ 20.1 to 201 µM)	–	–	–	–	–	–	–	–	–	–	–	MIC [10]: 1 to 10 µg/mL (≈ 2.01 to 20.1 µM); toxicity against HepG2 human hepatic cell line (in words) (HepG2 ATCC HB-8065; summary of Table 3): acceptable level of hepatic toxicity
O=C1COc2ccc(N3C[C@@H]4CN(CCn5c(=O)ccc6ccc(Oc7cccnc7)nc65)C[C@@H]4OC3=O)nc2N1 (relative stereo) [Compound 7, rel-1-{2-[(4aS*,7aR*-2-oxo-3-{3-oxo-2H,3H,4H-pyrido[3,2-b][1,4]oxazin-6-yl}-octahydropyrrolo[3,4-e][1,3]oxazin-6-yl]ethyl}-7-(pyridin-3-yloxy)-1,2-dihydro-1,8-naphthyridin-2-one]	–	–	–	–	–	–	–	–	–	B (a MIC of from 1 to 10 is assigned the letter B)	B (a MIC of from 1 to 10 is assigned the letter B)	C (a MIC of from 10 to 100 is assigned the letter C)	A (an MIC (in μg/mL) of less or equal to 1 is assigned the letter A)	A (an MIC (in μg/mL) of less or equal to 1 is assigned the letter A)	A (an MIC (in μg/mL) of less or equal to 1 is assigned the letter A)	C (a MIC of from 10 to 100 is assigned the letter C)	C (a MIC of from 10 to 100 is assigned the letter C)	A (an MIC (in μg/mL) of less or equal to 1 is assigned the letter A)	A (an IC50 of over 100 is assigned the letter A)	–	–
COc1ccc2c3nocc3c(=O)n(CCN3C[C@H]4CN(c5ccc6c(n5)NC(=O)CO6)C(=O)O[C@H]4C3)c2c1 (relative stereo) [Compound 9, rel-(4aS*,7aR*-6-(2-{7-methoxy-4-oxo-4H,5H-[1,2]oxazolo[3,4-c]quinolin-5-yl}ethyl)-3-{3-oxo-2H,3H,4H-pyrido[3,2-b][1,4]oxazin-6-yl}-octahydropyrrolo[3,4-e][1,3]oxazin-2-one]	–	–	–	–	–	–	–	–	–	D (a MIC of over 100 is assigned the letter D)	C (a MIC of from 10 to 100 is assigned the letter C)	D (a MIC of over 100 is assigned the letter D)	A (an MIC (in μg/mL) of less or equal to 1 is assigned the letter A)	B (a MIC of from 1 to 10 is assigned the letter B)	B (a MIC of from 1 to 10 is assigned the letter B)	D (a MIC of over 100 is assigned the letter D)	D (a MIC of over 100 is assigned the letter D)	A (an MIC (in μg/mL) of less or equal to 1 is assigned the letter A)	C (an IC50 of from 1 to 10 is assigned the letter C)	–	MIC [11]: A (an MIC (in μg/mL) of less or equal to 1 is assigned the letter A)
N#Cc1ccc2ccc(=O)n(CCN3CC4CN(c5ccc6c(n5)NC(=O)CO6)C(=O)O[C@@H]4C3)c2c1 (stereo in doubt) [Compound 12, 1-{2-[(4aR,7aS)-2-oxo-3-{3-oxo-2H,3H,4H-pyrido[3,2-b][1,4]oxazin-6-yl}-octahydropyrrolo[3,4-e][1,3]oxazin-6-yl]ethyl}-2-oxo-1,2-dihydroquinoline-7-carbonitrile]	< 1 µg/mL	< 1 µg/mL	1 to 10 µg/mL (≈ 2.06 to 20.6 µM)	< 1 µg/mL	< 1 µg/mL	< 1 µg/mL	1 to 10 µg/mL (≈ 2.06 to 20.6 µM)	10 to 100 µg/mL (≈ 20.6 to 206 µM)	> 100 µg/mL	–	–	–	–	–	–	–	–	–	–	1 fold	MIC (E. coli MG1655 WT): < 1 µg/mL; Fold increase in MIC against E. coli MG1655 S83L (E. coli MG1655 S83L): 1 fold; MIC (E. coli NCTC 13476): 1 to 10 µg/mL (≈ 2.06 to 20.6 µM); MIC (E. coli ATCC BAA-2452): < 1 µg/mL; MIC [11, 20]: 1 to 10 µg/mL (≈ 2.06 to 20.6 µM)
N#Cc1ccc2ccc(=O)n(CCN3CC4CN(c5ccc6c(n5)NC(=O)CO6)C(=O)O[C@H]4C3)c2c1 (stereo in doubt) [Compound 17, 1-{2-[(4aS,7aR)-2-oxo-3-{3-oxo-2H,3H,4H-pyrido[3,2-b][1,4]oxazin-6-yl}-octahydropyrrolo[3,4-e][1,3]oxazin-6-yl]ethyl}-2-oxo-1,2-dihydroquinoline-7-carbonitrile]	< 1 µg/mL	< 1 µg/mL	1 to 10 µg/mL (≈ 2.06 to 20.6 µM)	< 1 µg/mL	< 1 µg/mL	< 1 µg/mL	1 to 10 µg/mL (≈ 2.06 to 20.6 µM)	10 to 100 µg/mL (≈ 20.6 to 206 µM)	> 100 µg/mL	–	–	–	–	–	–	–	–	–	–	2 fold	MIC (E. coli MG1655 WT): < 1 µg/mL; Fold increase in MIC against E. coli MG1655 S83L (E. coli MG1655 S83L): 0.5 fold; MIC (E. coli NCTC 13476): 1 to 10 µg/mL (≈ 2.06 to 20.6 µM); MIC (E. coli ATCC BAA-2452): 1 to 10 µg/mL (≈ 2.06 to 20.6 µM); MIC [11, 20]: 1 to 10 µg/mL (≈ 2.06 to 20.6 µM)
